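96-well plates; 48 h exposure; 5 concentrations. Endpoints by linear interpolation between flanking doses. Not reached: highest tested concentration assigned. The concentration for 50% growth inhibition is given as GI50.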 The source made the active and inactive calls. No stated cut-off is given here; in the data, active = GI50 up to about 1.1 µM and inactive = higher.
Experiments:
Experiment in all cases: NCI anticancer screen, dose series, 48 h
MDA-N = tested on: MDA-N
HCC 2998 = tested on: HCC 2998
Malme-3M = tested on: Malme-3M
HCT-116 = tested on: HCT-116
OVCAR-8 = tested on: OVCAR-8
OVCAR-4 = tested on: OVCAR-4
IGROV-1 = tested on: IGROV-1
RPMI-8226 = tested on: RPMI-8226
OVCAR-3 = tested on: OVCAR-3
LOX IMVI = tested on: LOX IMVI
CAKI-1 = tested on: CAKI-1
M14 = tested on: M14
SN12C = tested on: SN12C
NCI/ADR-RES = tested on: NCI/ADR-RES
SF-539 = tested on: SF-539
SW-620 = tested on: SW-620
PC-3 = tested on: PC-3
BT-549 = tested on: BT-549
UACC-62 = tested on: UACC-62
OVCAR-5 = tested on: OVCAR-5

Structure (SMILES) | GI50 (MDA-N) | GI50 (HCC 2998) | GI50 (Malme-3M) | GI50 (HCT-116) | GI50 (OVCAR-8) | GI50 (OVCAR-4) | GI50 (IGROV-1) | GI50 (RPMI-8226) | GI50 (OVCAR-3) | GI50 (LOX IMVI) | GI50 (CAKI-1) | GI50 (M14) | GI50 (SN12C) | GI50 (NCI/ADR-RES) | GI50 (SF-539) | GI50 (SW-620) | GI50 (PC-3) | GI50 (BT-549) | GI50 (UACC-62) | GI50 (OVCAR-5)
c1nnc(NCNc2nncs2)s1 | 35.2 µM (inactive) | 19.2 µM (inactive) | > 100 µM (inactive) | 33.7 µM (inactive) | 69.5 µM (inactive) | 11.7 µM (inactive) | 49.1 µM (inactive) | 72.6 µM (inactive) | 21.5 µM (inactive) | 32.7 µM (inactive) | 9.48 µM (inactive) | 43.1 µM (inactive) | 30.9 µM (inactive) | > 100 µM (inactive) | 31 µM (inactive) | 45.8 µM (inactive) | 57.1 µM (inactive) | > 100 µM (inactive) | 93.3 µM (inactive) | 79.3 µM (inactive)
COc1ccc(/N=N/C(=O)NC(CC(C)C)C(=O)NC(CC(C)C)C(=O)O)cc1 (centres undefined) | 35.3 µM (inactive) | 30.9 µM (inactive) | 23.7 µM (inactive) | 86.5 µM (inactive) | > 100 µM (inactive) | > 100 µM (inactive) | > 100 µM (inactive) | > 100 µM (inactive) | > 100 µM (inactive) | > 100 µM (inactive) | > 100 µM (inactive) | 29.9 µM (inactive) | > 100 µM (inactive) | > 100 µM (inactive) | 4.81 µM (inactive) | 67 µM (inactive) | 18.7 µM (inactive) | > 100 µM (inactive) | 16.6 µM (inactive) | 4.02 µM (inactive)
OCC1OC(O)C(/N=C\c2ccc3c(c2)OCO3)C(O)C1O (centres undefined) | > 100 µM (inactive) | > 100 µM (inactive) | > 100 µM (inactive) | > 100 µM (inactive) | > 100 µM (inactive) | > 100 µM (inactive) | > 100 µM (inactive) | > 100 µM (inactive) | > 100 µM (inactive) | > 100 µM (inactive) | > 100 µM (inactive) | > 100 µM (inactive) |  | > 100 µM (inactive) | > 100 µM (inactive) | > 100 µM (inactive) | > 100 µM (inactive) | > 100 µM (inactive) | > 100 µM (inactive) | > 100 µM (inactive)
O=C(/C=C/c1cccc(Oc2ccccc2)c1)NCc1ccc(C(=O)NCc2ccccc2)cc1 | > 100 µM (inactive) | > 100 µM (inactive) | 41.3 µM (inactive) | 50.6 µM (inactive) | 14.1 µM (inactive) | 31 µM (inactive) | 79.8 µM (inactive) | > 100 µM (inactive) | 68.5 µM (inactive) | > 100 µM (inactive) | 43.8 µM (inactive) | > 100 µM (inactive) | > 100 µM (inactive) | 35.3 µM (inactive) | 0.865 µM (active) | > 100 µM (inactive) | > 100 µM (inactive) | 60.1 µM (inactive) | 79.8 µM (inactive) | > 100 µM (inactive)
Cc1cc(N(CCC#N)CCC#N)ccc1/C=N/NC(=O)c1ccccc1 | 2.86 µM (inactive) | 9.2 µM (inactive) | 33.2 µM (inactive) | 7.57 µM (inactive) | 23.5 µM (inactive) | 65.8 µM (inactive) | 12.9 µM (inactive) | 58.1 µM (inactive) | 15 µM (inactive) | 8.02 µM (inactive) | 23.1 µM (inactive) | 40.6 µM (inactive) | 28.5 µM (inactive) | 8.63 µM (inactive) | 7.76 µM (inactive) | 8.38 µM (inactive) | 21.8 µM (inactive) | 42.7 µM (inactive) | 10.4 µM (inactive) | > 80.5 µM (inactive)
COc1ccc2[nH]c3c(c2c1)COc1ccccc1C3=O | > 100 µM (inactive) | > 100 µM (inactive) | > 100 µM (inactive) | > 100 µM (inactive) | > 100 µM (inactive) | > 100 µM (inactive) | > 100 µM (inactive) | > 100 µM (inactive) | > 100 µM (inactive) | > 100 µM (inactive) | > 100 µM (inactive) | > 100 µM (inactive) | > 100 µM (inactive) | > 100 µM (inactive) | 89.1 µM (inactive) | > 100 µM (inactive) | > 100 µM (inactive) | 37.1 µM (inactive) | > 100 µM (inactive) | > 100 µM (inactive)
CCOC(=O)c1cc(Br)c(-c2cc(C)co2)[nH]1 | 36.4 µM (inactive) | > 100 µM (inactive) | > 100 µM (inactive) | > 100 µM (inactive) | > 100 µM (inactive) | > 100 µM (inactive) | 66.1 µM (inactive) | > 100 µM (inactive) | > 100 µM (inactive) | > 100 µM (inactive) | > 100 µM (inactive) | > 100 µM (inactive) | > 100 µM (inactive) | > 100 µM (inactive) | > 100 µM (inactive) | > 100 µM (inactive) | > 100 µM (inactive) | > 100 µM (inactive) | > 100 µM (inactive) | > 100 µM (inactive)
